{
  "source": "patent US20150157588A1",
  "about": "“Pharmaceutical Composition Comprising Amino-Phenyl-Acetic Acid Octadec-(Z)-9-enyl Ester and Use Thereof for Treating Tumors” (Yeda Research and Development Co., Ltd., priority 2012, published 2015)",
  "system": "anti-CD3-activated T cells",
  "test": "Microarray gene expression, T cells activated by anti-CD3 antibody",
  "format": "cell-based, human",
  "conditions": "for Fold change CCL7: 208075_s_at; for Fold change INDO: 210029_at; for Fold change RSAD2: 213797_at; for Fold change LYZ /// RFK: 213975_s_at; for Fold change CCL8: 214038_at; for Fold change CXCL5: 215101_s_at; for Fold change ANKRD12: 216563_at; for Fold change CCL2: 216598_s_at; for Fold change HIG2: 218507_at; for Fold change C1orf165: 219670_at; for Fold change IL1F9: 220322_at; for Fold change IL22: 221165_s_at; for Fold change PDE3B: 222330_at",
  "protocol": "CD3 positive T cells were extracted from a healthy donor according to a standard protocol, and seeded in T cell medium including RPMI, 10% fetal calf serum, sodium pyruvate, L-Glutamine, and Penicillin/Streptomycin. Following an overnight incubation with medium, the cells were treated by incubating for 2 hours at 37° C. with amino-phenyl-acetic acid octadec-(Z)-9-enyl ester at a concentration of 10 micrograms/ml in a final volume of 10 ml in T-cell medium with or without 0.05% ethanol. After incubation, half the cells from each treatment were centrifuged and 2 ml of Tri-reagent (Sigma) were added to the pellet. The other half of the cells from each treatment were transferred to anti-CD3 antibody coated 24 well plates for an overnight incubation at 37° C. Coating plates with an anti-CD3 antibody was carried out by incubating with 2 micrograms/ml of OKT3 anti-CD3 antibody overnight at 4° C., washing three times with PBS and blocking with filtered 1% Bovine Serum Albumin for 1 hour. After activation with anti-CD3 antibody, cells were centrifuged and 2 ml of Tri-reagent were added to the pellet.\nRNA was extracted from unstimulated cells and from cells activated with anti-CD3 according to standard protocols and used for hybridization with a Human Genome U133A 2.0 (Affymetrix, Catalogue number 900468), according to the manufacturer's instructions. The results of the hybridization were read by a GeneChip scanner 3000 (Affymetrix) and analyzed by QuantArray (GSI lumonics).\nThe effects of amino-phenyl-acetic acid octadec-(Z)-9-enyl ester in ethanol solution or in an aqueous vehicle (hereinafter termed “in PBS”) on gene expression in unstimulated T cells and T cells activated by anti-CD3 antibody were compared by microarray analysis.",
  "key": {"[1]": {"conditions": "anti-CD3-activated T cells, in ethanol solution vs in PBS"}, "[2]": {"conditions": "anti-CD3-activated T cells, in ethanol solution vs untreated"}, "[3]": {"conditions": "anti-CD3-activated T cells, in PBS vs untreated"}},
  "data": [
    {"smiles": "CCCCCCCC/C=C\\CCCCCCCCOC(=O)C(N)c1ccccc1", "note": "(centres unmarked) [amino-phenyl-acetic acid octadec-(Z)-9-enyl ester]", "values": [
      {"measurement": "Fold change CCL7", "setting": "[1]", "value": 2.01},
      {"measurement": "Fold change CCL7", "setting": "[2]", "value": 1.991},
      {"measurement": "Fold change NTRK1", "setting": "208605_s_at, anti-CD3-activated T cells, in ethanol solution vs untreated", "value": 2.03},
      {"measurement": "Fold change TFPI2", "setting": "209277_at, anti-CD3-activated T cells, in ethanol solution vs in PBS", "value": 2.53},
      {"measurement": "Fold change TFPI2", "setting": "209277_at, anti-CD3-activated T cells, in ethanol solution vs untreated", "value": 3.32},
      {"measurement": "Fold change TFPI2", "setting": "209278_s_at, anti-CD3-activated T cells, in ethanol solution vs in PBS", "value": 2.99},
      {"measurement": "Fold change TFPI2", "setting": "209278_s_at, anti-CD3-activated T cells, in ethanol solution vs untreated", "value": 3.87},
      {"measurement": "Fold change CHI3L1", "setting": "209395_at, anti-CD3-activated T cells, in ethanol solution vs in PBS", "value": 2.69},
      {"measurement": "Fold change CHI3L1", "setting": "209395_at, anti-CD3-activated T cells, in ethanol solution vs untreated", "value": 3.40},
      {"measurement": "Fold change CHI3L1", "setting": "209396_s_at, anti-CD3-activated T cells, in ethanol solution vs in PBS", "value": 2.15},
      {"measurement": "Fold change CHI3L1", "setting": "209396_s_at, anti-CD3-activated T cells, in ethanol solution vs untreated", "value": 2.58},
      {"measurement": "Fold change INDO", "setting": "[1]", "value": 2.08},
      {"measurement": "Fold change INDO", "setting": "[2]", "value": 2.47},
      {"measurement": "Fold Change SPAG1", "setting": "210117_at, anti-CD3-activated T cells, in ethanol solution vs in PBS", "value": "−1.90"},
      {"measurement": "Fold change IL1A", "setting": "210118_s_at, anti-CD3-activated T cells, in ethanol solution vs untreated", "value": 2.02},
      {"measurement": "Fold change PLA2G4A", "setting": "210145_at, anti-CD3-activated T cells, in ethanol solution vs untreated", "value": 2.00},
      {"measurement": "Fold Change LY9", "setting": "210370_s_at, anti-CD3-activated T cells, in ethanol solution vs in PBS", "value": 2.25},
      {"measurement": "Fold change INHBA", "setting": "210511_s_at, anti-CD3-activated T cells, in ethanol solution vs untreated", "value": 1.96},
      {"measurement": "Fold change FPRL1", "setting": "210772_at, anti-CD3-activated T cells, in ethanol solution vs untreated", "value": 2.00},
      {"measurement": "Fold change PLAUR", "setting": "210845_s_at, anti-CD3-activated T cells, in ethanol solution vs in PBS", "value": 2.01},
      {"measurement": "Fold change PLAUR", "setting": "210845_s_at, anti-CD3-activated T cells, in ethanol solution vs untreated", "value": 2.02},
      {"measurement": "Fold change LYST", "setting": "210943_s_at, anti-CD3-activated T cells, in ethanol solution vs untreated", "value": 2.45},
      {"measurement": "Fold change SERPINA1", "setting": "211429_s_at, anti-CD3-activated T cells, in ethanol solution vs untreated", "value": 2.06},
      {"measurement": "Fold change IL8", "setting": "211506_s_at, anti-CD3-activated T cells, in ethanol solution vs untreated", "value": 2.69},
      {"measurement": "Fold change PLAUR", "setting": "211924_s_at, anti-CD3-activated T cells, in ethanol solution vs untreated", "value": 1.91},
      {"measurement": "Fold Change MCM4", "setting": "212141_at, anti-CD3-activated T cells, in ethanol solution vs in PBS", "value": "−1.98"},
      {"measurement": "Fold Change MCM4", "setting": "212142_at, anti-CD3-activated T cells, in ethanol solution vs in PBS", "value": "−2.80"},
      {"measurement": "Fold change IL1RN", "setting": "212657_s_at, anti-CD3-activated T cells, in ethanol solution vs untreated", "value": 1.98},
      {"measurement": "Fold change IL1RN", "setting": "212659_s_at, anti-CD3-activated T cells, in ethanol solution vs untreated", "value": 1.90},
      {"measurement": "Fold change RSAD2", "setting": "[1]", "value": 3.11},
      {"measurement": "Fold change RSAD2", "setting": "[2]", "value": 2.28},
      {"measurement": "Fold change LYZ /// RFK", "setting": "[1]", "value": 2.02},
      {"measurement": "Fold change LYZ /// RFK", "setting": "[2]", "value": 2.00},
      {"measurement": "Fold change CCL8", "setting": "[1]", "value": 2.33},
      {"measurement": "Fold change CCL8", "setting": "[2]", "value": 2.23},
      {"measurement": "Fold change CXCL5", "setting": "[3]", "value": 1.995},
      {"measurement": "Fold change CXCL5", "setting": "[2]", "value": 2.31},
      {"measurement": "Fold change SOD2", "setting": "215223_s_at, anti-CD3-activated T cells, in ethanol solution vs untreated", "value": 1.95},
      {"measurement": "Fold change SNX9", "setting": "215284_at, anti-CD3-activated T cells, in ethanol solution vs untreated", "value": 2.44},
      {"measurement": "Fold change LYST", "setting": "215415_s_at, anti-CD3-activated T cells, in ethanol solution vs untreated", "value": 2.09},
      {"measurement": "Fold Change LY9", "setting": "215967_s_at, anti-CD3-activated T cells, in ethanol solution vs in PBS", "value": 2.05},
      {"measurement": "Fold Change LY9", "setting": "215967_s_at, anti-CD3-activated T cells, in ethanol solution vs untreated", "value": 2.2},
      {"measurement": "Fold change IL1RN", "setting": "216243_s_at, anti-CD3-activated T cells, in ethanol solution vs untreated", "value": 1.99},
      {"measurement": "Fold change ANKRD12", "setting": "[3]", "value": 1.94},
      {"measurement": "Fold change ANKRD12", "setting": "[2]", "value": 2.48},
      {"measurement": "Fold change probeset 216575_at", "setting": "[1]", "value": 2.69},
      {"measurement": "Fold change probeset 216575_at", "setting": "[2]", "value": 2.31},
      {"measurement": "Fold change CCL2", "setting": "[1]", "value": 5.27},
      {"measurement": "Fold change CCL2", "setting": "[2]", "value": 5.00},
      {"measurement": "Fold change SLC7A11", "setting": "217678_at, anti-CD3-activated T cells, in ethanol solution vs untreated", "value": 1.92},
      {"measurement": "Fold Change TNS3", "setting": "217853_at, anti-CD3-activated T cells, in ethanol solution vs in PBS", "value": 2.00},
      {"measurement": "Fold change FLJ20273", "setting": "218035_s_at, anti-CD3-activated T cells, in ethanol solution vs untreated", "value": 2.17},
      {"measurement": "Fold change HIG2", "setting": "[1]", "value": "−2.31"},
      {"measurement": "Fold change HIG2", "setting": "[2]", "value": "−2.17"},
      {"measurement": "Fold Change DTL", "setting": "218585_s_at, anti-CD3-activated T cells, in ethanol solution vs in PBS", "value": "−1.93"},
      {"measurement": "Fold change ANKRD11", "setting": "219437_s_at, anti-CD3-activated T cells, in ethanol solution vs untreated", "value": 2.84},
      {"measurement": "Fold change C1orf165", "setting": "[1]", "value": "−2.22"},
      {"measurement": "Fold change C1orf165", "setting": "[2]", "value": "−2.29"},
      {"measurement": "Fold change IL1F9", "setting": "[1]", "value": 2.74},
      {"measurement": "Fold change IL1F9", "setting": "[2]", "value": 3.10},
      {"measurement": "Fold change MCM10", "setting": "220651_s_at, anti-CD3-activated T cells, in ethanol solution vs untreated", "value": "−2.05"},
      {"measurement": "Fold change IL22", "setting": "[1]", "value": "−3.03"},
      {"measurement": "Fold change IL22", "setting": "[2]", "value": "−2.63"},
      {"measurement": "Fold Change BNIP3L", "setting": "221478_at, anti-CD3-activated T cells, in ethanol solution vs in PBS", "value": "−2.45"},
      {"measurement": "Fold Change BNIP3L", "setting": "221478_at, anti-CD3-activated T cells, in ethanol solution vs untreated", "value": "−2.28"},
      {"measurement": "Fold Change BNIP3L", "setting": "221479_s_at, anti-CD3-activated T cells, in ethanol solution vs in PBS", "value": "−2.00"},
      {"measurement": "Fold Change GINS2", "setting": "221521_s_at, anti-CD3-activated T cells, in ethanol solution vs in PBS", "value": "−1.99"},
      {"measurement": "Fold change GRSF1", "setting": "221917_s_at, anti-CD3-activated T cells, in PBS vs untreated", "value": 1.92},
      {"measurement": "Fold change PDE3B", "setting": "[1]", "value": 1.99},
      {"measurement": "Fold change PDE3B", "setting": "[2]", "value": 1.97},
      {"measurement": "down-regulated genes", "setting": "activated T cells, in PBS vs untreated", "value": "no down-regulated genes"}
    ]}
  ]
}
